Legend:
Type in all cases: in vivo
[1] = tested on: Surinam grass (Brachiaria decumbens); test: Test B pre-/postemergence plant response
Method in brief: (§1)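 Each species received compound formulated in non-phytotoxic solvent with surfactant, either at planting into a loam and sand blend or as a foliar spray once plants reached 2 to 18 cm in peat-based medium. Plants stayed in the greenhouse 13 to 15 days before visual evaluation against controls, scored 0 (no effect) to 100 (complete control).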

soybean (Glycine max) = test: Test B pre-/postemergence plant response
Method in brief: as §1

[2] = tested on: yellow nutsedge (Cyperus esculentus); test: Test B pre-/postemergence plant response
Method in brief: as §1

[3] = tested on: velvetleaf (Abutilon theophrasti); test: Test B pre-/postemergence plant response
Method in brief: as §1

[4] = tested on: blackgrass (Alopecurus myosuroides); test: Test B pre-/postemergence plant response
Method in brief: as §1

[5] = tested on: johnsongrass (Sorghum halepense); test: Test B pre-/postemergence plant response
Method in brief: as §1

[6] = tested on: bermudagrass (Cynodon dactylon); test: Test B pre-/postemergence plant response
Method in brief: as §1

[7] = tested on: large crabgrass (Digitaria sanguinalis); test: Test B pre-/postemergence plant response
Method in brief: as §1

wild oat (Avena fatua) = test: Test B pre-/postemergence plant response
Method in brief: as §1

[8] = tested on: Italian ryegrass (Lolium multiflorum); test: Test B pre-/postemergence plant response
Method in brief: as §1

[9] = tested on: woolly cupgrass (Eriochloa villosa); test: Test B pre-/postemergence plant response
Method in brief: as §1

[10] = tested on: ragweed (common ragweed, Ambrosia elatior); test: Test B pre-/postemergence plant response
Method in brief: as §1

[11] = tested on: lambsquarters (Chenopodium album); test: Test B pre-/postemergence plant response
Method in brief: as §1

corn (Zea mays) = test: Test B pre-/postemergence plant response
Method in brief: as §1

[12] = tested on: canarygrass (Phalaris minor); test: Test B postemergence plant response; conditions: Postemergence
Method in brief: (§2)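 Plants at the 1- to 4-leaf stage (2 to 18 cm tall), grown in pots of peat moss/vermiculite medium with wetting agent and starter nutrients, received postemergence applications of test chemicals. After 13 to 15 days in a greenhouse, injury was rated visually against untreated controls on a 0 (no effect) to 100 (complete control) scale.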

[13] = tested on: winter barley (Hordeum vulgare); test: Test B postemergence plant response; conditions: Postemergence
Method in brief: as §2

[14] = tested on: windgrass (Apera spica-venti); test: Test B postemergence plant response; conditions: Postemergence, scale 0 (no effect) to 100 (complete control)
Method in brief: as §2

[15] = tested on: chickweed (Stellaria media); test: Test B postemergence plant response; conditions: Postemergence
Method in brief: as §2

[16] = 250 g ai/ha, Preemergence, 0 to 100 scale
[17] = Postemergence, 62 g ai/ha, scale 0 (no effect) to 100 (complete control), 13 to 15 days
[18] = Postemergence, 125 g ai/ha, visual rating after 13 to 15 days, scale 0 (no effect) to 100 (complete control)
[19] = Preemergence, 31 g ai/ha, scale 0 to 100 (0 no effect, 100 complete control)
[20] = Preemergence, 125 g ai/ha, 0 to 100 scale
[21] = Postemergence, 31 g ai/ha, scale 0 to 100 (0 no effect, 100 complete control)
[22] = Postemergence, 250 g ai/ha, scale 0 to 100
[23] = Preemergence, 62 g ai/ha, scale 0 to 100, 0 no effect, 100 complete control
[24] = 31 g ai/ha, scale 0 to 100 (0 no effect, 100 complete control)
[25] = 62 g ai/ha, scale 0 (no effect) to 100 (complete control), 13 to 15 days
[26] = 125 g ai/ha, visual rating after 13 to 15 days, scale 0 (no effect) to 100 (complete control)

**Q.** Which results are given for `Cc1ccc(-n2c(-c3cccc(Cl)c3)ncc(C(=O)C3=C(O)CCCC3=O)c2=O)cc1` [Compound 39]?
**A.** Plant response rating, Surinam Grass [1, 16]: 15; Plant response rating, Surinam Grass [1, 17]: 65; Plant response rating, Surinam Grass [1, 18]: 65; Plant response rating, Surinam Grass [1, 19]: 0; Surinam Grass plant response rating [1, 20]: 10; Plant response rating, Soybean (soybean (Glycine max); [16]): 0; Plant response rating, Soybean (soybean (Glycine max); [17]): 95; Plant response rating, Soybean (soybean (Glycine max); [18]): 98; Plant response rating, Soybean (soybean (Glycine max); [19]): 0; Soybean plant response rating (soybean (Glycine max); [20]): 0; Plant response rating, Nutsedge, Yellow [2, 16]: 10; Plant response rating, Nutsedge, Yellow [2, 17]: 0; Plant response rating, Nutsedge, Yellow [2, 18]: 15; Plant response rating, Nutsedge, Yellow [2, 19]: 0; Nutsedge, Yellow plant response rating [2, 20]: 0; Plant response rating, Velvetleaf [3, 16]: 98; Plant response rating, Velvetleaf [3, 17]: 80; Plant response rating, Velvetleaf [3, 18]: 80; Plant response rating, Velvetleaf [3, 19]: 15; Velvetleaf plant response rating [3, 20]: 75; Plant response rating, Blackgrass [4, 16]: 0; Plant response rating, Blackgrass [4, 21]: 0; Plant response rating, Blackgrass [4, 17]: 0; Plant response rating, Blackgrass [4, 18]: 0; Blackgrass plant response rating [4, 22]: 20; Plant response rating, Blackgrass [4, 19]: 0; Plant response rating, Blackgrass [4, 23]: 0; Blackgrass plant response rating [4, 20]: 0; Plant response rating, Johnsongrass [5, 16]: 75; Plant response rating, Johnsongrass [5, 17]: 65; Plant response rating, Johnsongrass [5, 18]: 90; Johnsongrass plant response rating [5, 22]: 98; Plant response rating, Johnsongrass [5, 19]: 0; Plant response rating, Johnsongrass [5, 23]: 60; Johnsongrass plant response rating [5, 20]: 65; Plant response rating, Bermudagrass [6, 16]: 100; Plant response rating, Bermudagrass [6, 21]: 50; Plant response rating, Bermudagrass [6, 17]: 60; Plant response rating, Bermudagrass [6, 18]: 85; Bermudagrass plant response rating [6, 22]: 100; Plant response rating, Bermudagrass [6, 19]: 85; Plant response rating, Bermudagrass [6, 23]: 100; Bermudagrass plant response rating [6, 20]: 100; Plant response rating, Crabgrass, Large [7, 16]: 100; Plant response rating, Crabgrass, Large [7, 21]: 75; Plant response rating, Crabgrass, Large [7, 17]: 80; Plant response rating, Crabgrass, Large [7, 18]: 85; Crabgrass, Large plant response rating [7, 22]: 90; Plant response rating, Crabgrass, Large [7, 19]: 55; Plant response rating, Crabgrass, Large [7, 23]: 95; Crabgrass, Large plant response rating [7, 20]: 100; Plant response rating, Oat, Wild (wild oat (Avena fatua); [16]): 0; Plant response rating, Oat, Wild (wild oat (Avena fatua); [17]): 20; Plant response rating, Oat, Wild (wild oat (Avena fatua); [18]): 30; Plant response rating, Oat, Wild (wild oat (Avena fatua); [19]): 0; Oat, Wild plant response rating (wild oat (Avena fatua); [20]): 0; Plant response rating, Ryegrass, Italian [8, 16]: 0; Plant response rating, Ryegrass, Italian [8, 17]: 5; Plant response rating, Ryegrass, Italian [8, 18]: 5; Plant response rating, Ryegrass, Italian [8, 19]: 0; Ryegrass, Italian plant response rating [8, 20]: 0; Plant response rating, Cupgrass, Woolly [9, 16]: 10; Plant response rating, Cupgrass, Woolly [9, 21]: 65; Plant response rating, Cupgrass, Woolly [9, 17]: 85; Plant response rating, Cupgrass, Woolly [9, 18]: 85; Cupgrass, Woolly plant response rating [9, 22]: 90; Plant response rating, Cupgrass, Woolly [9, 19]: 0; Plant response rating, Cupgrass, Woolly [9, 23]: 0; Cupgrass, Woolly plant response rating [9, 20]: 0; Plant response rating, Ragweed [10, 16]: 95; Plant response rating, Ragweed [10, 17]: 85; Plant response rating, Ragweed [10, 18]: 95; Plant response rating, Ragweed [10, 19]: 0; Ragweed plant response rating [10, 20]: 75; Plant response rating, Lambsquarters [11, 16]: 100; Plant response rating, Lambsquarters [11, 17]: 95; Plant response rating, Lambsquarters [11, 18]: 100; Lambsquarters plant response rating [11, 22]: 100; Plant response rating, Lambsquarters [11, 19]: 100; Plant response rating, Lambsquarters [11, 23]: 100; Lambsquarters plant response rating [11, 20]: 100; Plant response rating, Corn (corn (Zea mays); [16]): 0; Plant response rating, Corn (corn (Zea mays); [21]): 25; Plant response rating, Corn (corn (Zea mays); [17]): 45; Plant response rating, Corn (corn (Zea mays); [18]): 45; Corn plant response rating (corn (Zea mays); [22]): 65; Plant response rating, Corn (corn (Zea mays); [19]): 0; Plant response rating, Corn (corn (Zea mays); [23]): 0; Corn plant response rating (corn (Zea mays); [20]): 0; Plant response rating, Canarygrass [12, 24]: 0; Plant response rating, Canarygrass [12, 25]: 0; Plant response rating, Canarygrass [12, 26]: 0; Canarygrass plant response rating ([12]; 250 g ai/ha, scale 0 to 100): 20; Plant response rating, Barley [13, 24]: 0; Plant response rating, Barley [13, 25]: 0; Plant response rating, Barley [13, 26]: 0; Barley plant response rating ([13]; 250 g ai/ha, scale 0 to 100): 10; Plant response rating, Windgrass ([14]; 62 g ai/ha, 13 to 15 days): 0; Plant response rating, Windgrass ([14]; 125 g ai/ha, visual rating after 13 to 15 days): 5; Plant response rating, Chickweed [15, 24]: 98; Plant response rating, Chickweed [15, 25]: 100; Plant response rating, Chickweed [15, 26]: 100; Chickweed plant response rating ([15]; 250 g ai/ha, scale 0 to 100): 100

Source: US8952024B2, “Herbicidal pyrimidone derivatives” (E I du Pont de Nemours and Company, priority 2009, dated 2015)
